Assay results taken from patent US6573243B1, “Pompilid wasp-derived neuropeptides” (Suntory Limited, priority 1997, dated 2003).

Tested on: nerve-muscle junction of a lobster's walking leg
Test: Effect on excitatory postsynaptic potential (EPSP) in the neuromuscular specimen of a lobster's walking leg
Settings: for concentration at which the peptide enhanced EPSP: sample dissolved in artificial seawater on the nerve-muscle junction side, excitatory nerve electrically stimulated; for biological activity of the synthetic peptide compared with the natural peptide: synthetic vs natural peptide
Procedure: The biological activity of the present peptides can be assayed according to the methods described in Japanese Patent Laid-Open No. 4-198161, in which excitatory postsynaptic potential (EPSP) is generated in the neuromuscular specimen of a lobster's walking leg, and the effect of the compound given to the nerve fibers on the EPSP is determined.
In general, substances inhibiting EPSP are believed to be glutamate antagonists or inhibitors for the release of glutamic acid, and the substances enhancing EPSP are believed to be glutamate-like agonists or accelerators for the release of glutamic acid.
The effect of the present peptides on excitatory postsynaptic potential (EPSP) was measured according to the method disclosed in Japanese Patent Laid-Open No. 4-198161. Thus, the shell of a lobster's walking leg was removed to expose the excitatory nerve and the inhibitory nerve, and a stimulating electrode was attached thereto. Then the nerve-muscle junction was exposed, and a recording electrode was attached thereto. The walking leg equipped with the electrodes was transferred to a container filled with an artificial seawater, and a partition was set up between the stimulating electrode part and the recording electrode part. The samples to be measured were dissolved into the artificial seawater in the recording electrode side (i.e., the side containing the nerve-muscle junction). Subsequently, the excitatory nerve was electrically stimulated and the EPSP, which was induced by glutamic acid released from the nerve end in response to the stimulation, was recorded.

## H-Arg-Ile-Lys-Ile-Gly-Leu-Phe-Asp-Gln-Leu-Ser-Arg-Leu-NH2 (H-RIKIGLFDQLSRL-NH2) [peptide (97)]
  concentration at which the peptide enhanced EPSP: 200 nM
  biological activity of the synthetic peptide compared with the natural peptide: same biological activity as the natural peptides

## H-Arg-Ile-Lys-Ile-Gly-Leu-Phe-Asp-Gln-Leu-Ser-Lys-Leu-NH2 (H-RIKIGLFDQLSKL-NH2) [peptide (1)]
  concentration at which the peptide enhanced EPSP: 1000 nM
  biological activity of the synthetic peptide compared with the natural peptide: same biological activity as the natural peptides
